Laboratory results: ChEMBL document CHEMBL3734721 (J Med Chem, 2015)

Experiments:
[1] = molecular target: 5-hydroxytryptamine receptor 2B (Homo sapiens, UniProt P41595); test: Antagonist activity at human 5-HT2B receptor expressed in CHO-K1 cells assessed as seretonin-induced calcium level by FDSS assay; type: functional, cell-based
[2] = Fraction unbound in human plasma at 5 uM after 4.5 hrs by LC-MS/MS analysis; type: ADME, cell-free
[3] = molecular target: T1, 5-hydroxytryptamine receptor 2C (Homo sapiens, UniProt P28335); test: Agonist activity at human 5-HT2C receptor expressed in CHO-K1 cells assessed as calcium level by FDSS assay; type: functional, cell-based
T1 sequence (P28335 whole entry): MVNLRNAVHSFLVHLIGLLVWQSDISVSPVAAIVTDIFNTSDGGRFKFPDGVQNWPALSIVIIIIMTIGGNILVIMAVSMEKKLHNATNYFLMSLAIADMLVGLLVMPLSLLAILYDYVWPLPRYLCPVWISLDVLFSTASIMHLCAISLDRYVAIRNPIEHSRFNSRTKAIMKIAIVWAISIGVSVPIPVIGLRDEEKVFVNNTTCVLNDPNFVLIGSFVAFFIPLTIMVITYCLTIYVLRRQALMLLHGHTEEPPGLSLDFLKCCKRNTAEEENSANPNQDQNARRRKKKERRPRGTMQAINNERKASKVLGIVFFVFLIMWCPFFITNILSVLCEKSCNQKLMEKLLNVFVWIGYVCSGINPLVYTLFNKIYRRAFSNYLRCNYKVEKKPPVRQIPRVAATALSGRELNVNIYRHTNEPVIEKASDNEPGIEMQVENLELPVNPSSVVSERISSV

[4] = Cmax in Swiss mouse brain at 5 mg/kg, sc; type: ADME, organism-based; set-up: dose 5 mg/kg, route subcutaneous
[5] = Chemical stability of compound in DMSO assessed as compound remaining at 10 mg/ml after 24 days at room temperature under air; type: physicochemical; conditions: read-out: Stability
D(1A) dopamine receptor = D(1A) dopamine receptor (Homo sapiens, UniProt P21728); test: Antagonist activity at human wild-type D1 receptor expressed in CHO cells assessed as dopamine-induced cAMP by HTRF assay; type: functional, cell-based
Chain of D(1A) dopamine receptor (P21728 whole entry): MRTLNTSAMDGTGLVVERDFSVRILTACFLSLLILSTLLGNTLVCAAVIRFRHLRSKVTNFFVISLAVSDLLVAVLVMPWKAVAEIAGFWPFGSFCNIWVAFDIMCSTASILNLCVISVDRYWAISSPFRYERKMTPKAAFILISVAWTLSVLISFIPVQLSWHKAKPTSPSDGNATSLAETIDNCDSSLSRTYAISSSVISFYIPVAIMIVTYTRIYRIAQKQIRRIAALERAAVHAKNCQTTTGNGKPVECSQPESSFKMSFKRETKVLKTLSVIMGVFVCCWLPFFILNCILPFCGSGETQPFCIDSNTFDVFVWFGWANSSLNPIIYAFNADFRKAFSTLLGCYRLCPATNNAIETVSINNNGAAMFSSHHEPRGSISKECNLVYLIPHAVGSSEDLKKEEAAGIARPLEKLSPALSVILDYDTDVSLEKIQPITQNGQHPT

[6] = molecular target: T2, Type-1 angiotensin II receptor (Homo sapiens, UniProt P30556); test: Antagonist activity at human wild-type AGTR1 receptor expressed in CHO-K1 cells assessed as angiotensin-2-induced calcium by FDSS assay; type: functional, cell-based
T2 sequence (P30556 whole entry): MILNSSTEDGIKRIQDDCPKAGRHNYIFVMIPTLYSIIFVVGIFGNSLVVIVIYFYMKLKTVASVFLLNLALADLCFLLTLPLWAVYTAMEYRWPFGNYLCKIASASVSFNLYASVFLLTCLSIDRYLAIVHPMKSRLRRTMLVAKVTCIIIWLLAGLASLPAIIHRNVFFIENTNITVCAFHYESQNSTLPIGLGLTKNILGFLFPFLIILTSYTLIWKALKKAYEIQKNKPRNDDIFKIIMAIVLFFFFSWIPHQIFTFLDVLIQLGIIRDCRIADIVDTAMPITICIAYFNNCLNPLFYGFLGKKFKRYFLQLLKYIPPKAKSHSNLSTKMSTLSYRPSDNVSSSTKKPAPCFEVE

[7] = molecular target: 5-hydroxytryptamine receptor 6 (Homo sapiens, UniProt P50406); test: Agonist activity at human 5-HT6 receptor expressed in 1321N1 cells assessed as cAMP by HTRF assay; type: functional, cell-based
Chain of 5-hydroxytryptamine receptor 6 (P50406 whole entry): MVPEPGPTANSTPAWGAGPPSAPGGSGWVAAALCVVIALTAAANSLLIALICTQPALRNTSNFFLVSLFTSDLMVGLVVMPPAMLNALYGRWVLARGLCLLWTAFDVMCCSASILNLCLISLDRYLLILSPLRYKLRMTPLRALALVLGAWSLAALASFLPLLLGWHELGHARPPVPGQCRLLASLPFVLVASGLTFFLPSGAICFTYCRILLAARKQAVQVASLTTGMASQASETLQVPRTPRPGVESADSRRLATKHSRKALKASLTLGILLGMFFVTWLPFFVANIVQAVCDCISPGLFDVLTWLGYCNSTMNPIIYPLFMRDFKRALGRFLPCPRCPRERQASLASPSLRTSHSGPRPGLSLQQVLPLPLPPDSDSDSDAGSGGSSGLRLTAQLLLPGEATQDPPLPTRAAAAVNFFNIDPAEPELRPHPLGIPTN

Adenosine receptor A2a = Adenosine receptor A2a (Homo sapiens, UniProt P29274); test: Antagonist activity at human wild-type A2A receptor expressed in CHO-K1 cells assessed as NECA-induced cAMP by HTRF assay; type: functional, cell-based
Chain of Adenosine receptor A2a (P29274 whole entry): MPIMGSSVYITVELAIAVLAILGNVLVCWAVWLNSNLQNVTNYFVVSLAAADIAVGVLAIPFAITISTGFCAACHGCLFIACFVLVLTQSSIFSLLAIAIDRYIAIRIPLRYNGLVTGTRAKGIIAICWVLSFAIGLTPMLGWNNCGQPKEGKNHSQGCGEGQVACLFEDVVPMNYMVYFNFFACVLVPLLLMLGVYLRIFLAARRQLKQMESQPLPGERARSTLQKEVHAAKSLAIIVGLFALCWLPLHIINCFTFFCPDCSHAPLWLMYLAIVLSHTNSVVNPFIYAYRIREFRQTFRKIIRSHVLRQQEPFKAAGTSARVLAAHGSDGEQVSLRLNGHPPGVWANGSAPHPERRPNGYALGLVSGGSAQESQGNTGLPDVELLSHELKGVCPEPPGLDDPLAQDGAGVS

[8] = molecular target: T3, Muscarinic acetylcholine receptor M1 (Homo sapiens, UniProt P11229); test: Antagonist activity at human wild-type M1 receptor expressed in CHO-K1 cells assessed as acetylcholine-induced calcium by FDSS assay; type: functional, cell-based
T3 sequence (P11229 whole entry): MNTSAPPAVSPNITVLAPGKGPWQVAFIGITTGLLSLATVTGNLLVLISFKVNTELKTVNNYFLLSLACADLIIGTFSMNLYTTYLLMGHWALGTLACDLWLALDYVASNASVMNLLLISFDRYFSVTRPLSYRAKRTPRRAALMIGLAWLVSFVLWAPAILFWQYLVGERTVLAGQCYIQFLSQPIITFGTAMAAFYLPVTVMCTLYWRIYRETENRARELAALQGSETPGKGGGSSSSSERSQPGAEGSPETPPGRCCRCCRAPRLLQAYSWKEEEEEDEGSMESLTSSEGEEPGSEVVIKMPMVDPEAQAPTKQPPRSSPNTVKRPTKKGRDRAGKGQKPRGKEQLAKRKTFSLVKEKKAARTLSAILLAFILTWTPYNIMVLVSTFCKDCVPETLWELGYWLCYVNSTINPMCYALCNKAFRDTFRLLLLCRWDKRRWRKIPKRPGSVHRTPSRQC

Liver microsome = test: Metabolic stability in human liver microsomes assessed as GSH adduct formation at 40 uM for 1 hr by LC/MS analysis; type: ADME
[9] = Intrinsic clearance in human liver microsomes at 1 uM by HPLC/MS/MS analysis; type: ADME; conditions: read-out: CLH
[10] = Log D of compound at pH 7.4 by chromotography; type: physicochemical; conditions: buffer
human MDR1 = test: Permeability across apical to basolateral in MDCK expressing human MDR1 at 5 uM by LC-MS/MS method; type: ADME, cell-based, Canis lupus familiaris; conditions: dog, read-out: permeability
Endothelin-1 receptor = molecular target: T4, Endothelin-1 receptor (Homo sapiens, UniProt P25101); test: Agonist activity at human wild-type ETA receptor expressed in CHO-K1 cells assessed as calcium level by HTRF assay; type: functional, cell-based
T4 sequence (P25101 whole entry): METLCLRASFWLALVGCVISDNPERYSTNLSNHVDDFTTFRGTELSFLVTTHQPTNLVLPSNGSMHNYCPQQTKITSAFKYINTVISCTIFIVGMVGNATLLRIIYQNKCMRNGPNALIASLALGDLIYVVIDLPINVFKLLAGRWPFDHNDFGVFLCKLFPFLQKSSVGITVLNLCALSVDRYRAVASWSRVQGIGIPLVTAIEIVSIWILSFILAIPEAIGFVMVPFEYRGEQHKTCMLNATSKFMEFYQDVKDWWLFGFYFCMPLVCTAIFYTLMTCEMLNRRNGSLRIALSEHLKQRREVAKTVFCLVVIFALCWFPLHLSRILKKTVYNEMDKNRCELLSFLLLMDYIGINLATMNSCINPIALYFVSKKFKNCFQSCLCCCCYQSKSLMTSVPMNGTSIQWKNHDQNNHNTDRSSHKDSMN

[11] = molecular target: 5-hydroxytryptamine receptor 7 (Homo sapiens, UniProt P34969); test: Agonist activity at human wild-type 5-HT7 receptor expressed in HEK cells assessed as cAMP by HTRF assay; type: functional, cell-based, HEK293
Chain of 5-hydroxytryptamine receptor 7 (P34969 whole entry): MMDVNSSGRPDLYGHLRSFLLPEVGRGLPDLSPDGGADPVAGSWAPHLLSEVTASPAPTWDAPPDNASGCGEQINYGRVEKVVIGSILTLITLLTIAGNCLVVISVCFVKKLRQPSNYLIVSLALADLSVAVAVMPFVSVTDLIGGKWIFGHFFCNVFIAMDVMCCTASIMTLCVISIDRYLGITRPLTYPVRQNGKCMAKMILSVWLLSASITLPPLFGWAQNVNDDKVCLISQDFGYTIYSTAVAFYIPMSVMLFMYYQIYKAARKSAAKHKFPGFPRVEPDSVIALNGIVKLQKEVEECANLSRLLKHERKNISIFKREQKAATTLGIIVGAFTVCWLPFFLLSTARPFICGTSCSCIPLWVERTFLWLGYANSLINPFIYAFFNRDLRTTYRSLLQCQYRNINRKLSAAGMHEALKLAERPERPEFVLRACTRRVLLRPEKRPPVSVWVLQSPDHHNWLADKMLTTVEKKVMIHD

[12] = molecular target: 5-hydroxytryptamine receptor 1B (Homo sapiens, UniProt P28222); test: Agonist activity at human 5-HT1B receptor expressed in CHO-K1 cells assessed as cAMP level by HTRF assay; type: functional, cell-based
Chain of 5-hydroxytryptamine receptor 1B (P28222 whole entry): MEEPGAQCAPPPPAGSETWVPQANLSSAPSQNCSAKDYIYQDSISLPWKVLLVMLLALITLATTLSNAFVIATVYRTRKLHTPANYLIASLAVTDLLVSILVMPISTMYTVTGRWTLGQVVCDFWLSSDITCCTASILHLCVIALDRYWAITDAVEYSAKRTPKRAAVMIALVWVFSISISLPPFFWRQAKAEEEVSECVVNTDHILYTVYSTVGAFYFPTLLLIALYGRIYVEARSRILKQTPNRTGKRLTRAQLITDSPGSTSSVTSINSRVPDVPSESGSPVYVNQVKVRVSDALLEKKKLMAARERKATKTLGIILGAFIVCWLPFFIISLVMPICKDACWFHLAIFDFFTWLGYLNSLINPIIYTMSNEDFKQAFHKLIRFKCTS

[13] = Fraction unbound in rat plasma at 5 uM after 4.5 hrs by LC-MS/MS analysis; type: ADME, cell-free

Chain of 5-hydroxytryptamine receptor 2B (P41595 whole entry): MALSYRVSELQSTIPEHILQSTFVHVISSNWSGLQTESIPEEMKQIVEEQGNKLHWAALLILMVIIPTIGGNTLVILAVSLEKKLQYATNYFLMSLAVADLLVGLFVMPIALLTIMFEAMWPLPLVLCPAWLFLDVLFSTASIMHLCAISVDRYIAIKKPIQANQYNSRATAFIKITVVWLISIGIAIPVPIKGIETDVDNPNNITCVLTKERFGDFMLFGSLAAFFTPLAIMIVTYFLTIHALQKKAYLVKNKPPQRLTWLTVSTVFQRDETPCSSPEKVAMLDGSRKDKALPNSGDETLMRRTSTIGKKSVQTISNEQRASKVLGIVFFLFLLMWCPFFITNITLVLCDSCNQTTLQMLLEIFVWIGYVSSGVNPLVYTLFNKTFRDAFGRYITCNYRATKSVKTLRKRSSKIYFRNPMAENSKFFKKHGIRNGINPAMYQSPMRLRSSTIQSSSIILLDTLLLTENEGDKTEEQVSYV

Row | Compound | IC50 [1] [µM] | fraction unbound at 4.5 h, 5 µM [2] | EC50 [3] [µM] | Cmax [4] [µM] | remaining at 576 h, 10 mg/ml [5] [%] | IC50 (D(1A) dopamine receptor) [µM] | IC50 [6] [µM] | EC50 [7] [µM] | IC50 (Adenosine receptor A2a) [µM] | IC50 [8] [µM] | Stability (Liver microsome) | microsomal CLint at 1 µM [9] [µL/min/mg] | chromatographic logD [10] | Papp A→B at 5 µM (human MDR1) [×10⁻⁶ cm/s] | EC50 (Endothelin-1 receptor) [µM] | EC50 [11] [µM] | EC50 [12] [µM] | fraction unbound at 4.5 h, 5 µM [13]
1 | CB1C=Cc2c(cccc2OCC(O)CN(C)C)N1 (stereo unspecified) | > 5.01 | 0.367 | > 5.01 | 62 | 97 | > 5.01 | > 5.01 | > 5.01 | > 5.01 | > 5.01 | Stable | 11 | 1.81 | 2.3 | > 5.01 | > 5.01 | > 5.01 | 0.29
2 | CB1C=Cc2cccc(OCC(O)CNC(C)C)c2N1 (stereo unspecified) | > 5.01 | 0.179 | > 5.01 | 7 | 98 | > 5.01 | > 5.01 | > 5.01 | > 5.01 | > 5.01 | Stable | 8.7 | 2.31 | 1.3 | > 5.01 | > 5.01 | > 5.01 | 0.096
